Experimental findings from ChEMBL document CHEMBL1201862, “PubChem BioAssay data set” (2004) are described below.

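Each compound was tested at five concentrations against cells in 96-well plates for 48 hours. GI50 marks 50% less growth.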 The source made the active and inactive calls. Rule as the data show it: active = GI50 up to about 1.1 µM and inactive = higher.

Test systems include HL-60; HCC 2998; K562; NCI-H23; NCI-H522; NCI-H460; A498; RXF 393; SK-MEL-28; HCT-15; SK-MEL-5; SNB-19; SF-539; NCI-H226; OVCAR-8; RPMI-8226; UACC-257; CCRF-CEM; OVCAR-4; UO-31.
What all share (experiment): growth of human tumour cells (NCI), 48 h

As for `CC(=O)NNc1nc(C)c(C(=O)NNC(=O)C(=O)Nc2cccc(C(C)=O)c2)s1`, the GI50 in the test with HL-60 was 25.5 µM (inactive); with HCC 2998, 17.3 µM (inactive); in the test with K562 it was 32.1 µM (inactive); in the test with NCI-H23, 17.5 µM (inactive); with NCI-H522, 15.2 µM (inactive); in the test on NCI-H460, 12.7 µM (inactive). Further, the GI50 in the test with A498 is 20.7 µM (inactive); with RXF 393, 16.5 µM (inactive); in the test with SK-MEL-28, 19.7 µM (inactive); in the test with HCT-15 it was 21.2 µM; with SK-MEL-5, 95.3 µM (inactive); in the test with SNB-19 it was 41 µM (inactive). In addition, the GI50 in the test with SF-539 was 18.7 µM (inactive); with NCI-H226, 22.8 µM (inactive); in the test with OVCAR-8 it was 20 µM (inactive); in the test with RPMI-8226, 40.1 µM (inactive); with UACC-257, 23.1 µM (inactive); in the test on CCRF-CEM, 23.2 µM (inactive). The GI50 in the test on OVCAR-4 was 25.2 µM (inactive); with UO-31 it was 17.1 µM (inactive).

`CC(C)C1NC(=O)CC(c2ccccc2)N(N=O)C1c1ccccc1` (stereo not given): the GI50 with HL-60 was 74.5 µM (inactive); in the test on HCC 2998 it was > 100 µM (inactive); in the test with K562, 71.4 µM (inactive); in the test with NCI-H23, > 80.9 µM (inactive); in the test on NCI-H522, 37.5 µM (inactive); in the test with NCI-H460, > 100 µM (inactive). Besides, the GI50 was > 100 µM (inactive) in the test on A498; > 100 µM (inactive) in the test on RXF 393; > 100 µM (inactive) in the test on SK-MEL-28; greater than 100 µM with HCT-15; > 83.6 µM (inactive) in the test with SK-MEL-5; > 100 µM (inactive) in the test on SNB-19. Further, the GI50 is > 100 µM (inactive) in the test with SF-539; > 100 µM (inactive) in the test on NCI-H226; > 100 µM (inactive) in the test with OVCAR-8; 81.8 µM (inactive) in the test on RPMI-8226; > 100 µM (inactive) in the test on UACC-257; > 100 µM (inactive) in the test on CCRF-CEM. Also, the GI50 with OVCAR-4 and in the test on UO-31 was > 100 µM (inactive) throughout.

In the case of `CO/C=C1\OC(=O)C=C1OC`, the GI50 in the test with HL-60, with HCC 2998, with K562, with NCI-H23, with NCI-H522 and in the test with NCI-H460 was > 100 µM (inactive) each time. Moreover, the GI50 was > 100 µM (inactive) in the test with A498; > 100 µM (inactive) in the test on RXF 393; > 100 µM (inactive) in the test with SK-MEL-28; greater than 100 µM in the test on HCT-15; > 100 µM (inactive) in the test on SK-MEL-5; > 100 µM (inactive) in the test with SNB-19. For the same compound, the GI50 with SF-539, with NCI-H226, with OVCAR-8, with RPMI-8226, with UACC-257 and with CCRF-CEM was > 100 µM (inactive) each time. The GI50 in the test on OVCAR-4 and in the test with UO-31 was > 100 µM (inactive) in each case.

In the case of `Cc1c2cc[n+](Cc3ccc(I)cc3)cc2c(C)c2c1[nH]c1ccccc12`, the GI50 in the test with HL-60 is 0.488 µM (active); in the test on HCC 2998 it was 0.881 µM (active); in the test with K562, 0.643 µM (active); in the test on NCI-H23, 0.65 µM (active); in the test on NCI-H522, 0.692 µM (active); with NCI-H460 it was 0.281 µM (active). The GI50 in the test with A498 was 0.697 µM (active); in the test with RXF 393 it was 0.893 µM (active); in the test with SK-MEL-28 it was 1.45 µM (inactive); with HCT-15, 7.8 µM; with SK-MEL-5, 0.49 µM (active); with SNB-19, 0.471 µM (active). Also, the GI50 in the test with SF-539 is 1.74 µM (inactive); with NCI-H226, 0.552 µM (active); in the test on OVCAR-8 it was 0.685 µM (active); in the test with RPMI-8226 it was 0.518 µM (active); in the test on UACC-257 it was 0.646 µM (active); with CCRF-CEM it was 0.448 µM (active). In addition, the GI50 with OVCAR-4 is 0.546 µM (active); in the test with UO-31 it was 3.14 µM (inactive).
